Six compounds from ChEMBL document CHEMBL5113494, “Novel difluoromethyl-containing 1-((4-methoxy-3-(piperazin-1-yl)phenyl)sulfonyl)-1H-indole scaffold as potent 5-HT6R antagonists: Design, synthesis, biological evaluation, and early in vivo cognition-enhancing studies” (Bioorg Med Chem, 2022) can be followed below.

Series [1] in a line: physchem. The settings on record: octanol/water.
Series [2] can be described thus: physchem.
The conditions of series [3]: Sprague-Dawley, rat, in vivo, iv, 2 mg/kg, 24 h.
A short description of series [4]: in vivo. The conditions noted are these: Sprague-Dawley, rat, iv, 2 mg/kg.
Series [5] in a line: in vivo. The settings on record: Sprague-Dawley, rat, po, 5 mg/kg.
A short description of series [6]: in vivo. The conditions noted are these: Sprague-Dawley, rat, po, 5 mg/kg. This is another data set of the same source.
Series [7] can be described thus: in vivo. The conditions noted are these: Sprague-Dawley, rat, po, 5 mg/kg. The source holds these as a separate data set.
Series [8] in a line: in vivo. The conditions noted are these: Sprague-Dawley, rat, po, 5 mg/kg. The source holds these as a separate data set.

By logP is commonly meant the decadic logarithm of the partition coefficient of the neutral form, usually between octanol and water. In turn, `COc1ccc(S(=O)(=O)n2cc(C)c3cc(F)ccc32)cc1N1CCNCC1` gave a logP in the series “physchem [1]” of 3.22.

By pKa is commonly meant the pH at which an ionisable group is half protonated. Higher therefore signals a weaker acid or stronger base. Regarding `COc1ccc(S(=O)(=O)n2cc(C(F)F)c3cc(Cl)ccc32)cc1N1CCNCC1`, the logP in “physchem [1]” was 3.85. This compound also displayed a pKa in “physchem [2]” of 8.66.

`COc1ccc(S(=O)(=O)n2cc(C)c3ccc(F)cc32)cc1N1CCNCC1`: the logP in “physchem [1]” stood at 3.3. Besides, the pKa in the series “physchem [2]” came to 8.78.

As a reminder, the Cmax is the maximum level reached in the sampled fluid or tissue. Usually AUC(0-t) stands for the area under the concentration-time curve up to a stated or last time point. Broadly, the half-life is the time needed for the level to fall by half in the phase considered. Low values mean rapid decline, high ones slow decline. Usually bioavailability stands for dose-corrected exposure relative to a reference, in per cent. Low readings indicate poor availability, high ones good availability. Regarding `COc1ccc(S(=O)(=O)n2ccc3ccc(Br)cc32)cc1N1CCNCC1`, the AUCt in series [3] stood at 153 ng·h/mL. Besides, the Cmax at 24 h in “in vivo [4]” is 133 ng/mL; in “in vivo [5]”, 10 ng/mL. In the series “in vivo [6]”, the AUC(0-t) at 24 h stood at 32 ng·h/mL. In “in vivo [7]”, this compound had a half-life at 24 h of 2.1 h. The compound also yielded a bioavailability at 24 h in “in vivo [8]” of 9.35%. The compound also came in with a logP in the series “physchem [1]” of 3.73. Moreover, in the series “physchem [2]”, the pKa is 8.68.

Turning to `COc1ccc(S(=O)(=O)n2cc(C(F)F)c3cc(F)ccc32)cc1N1CCNCC1`, the logP in the series “physchem [1]” was 3.31. Also, in “physchem [2]”, the pKa worked out at 8.78.

With `COc1ccc(S(=O)(=O)n2cc(C(F)F)c3ccc(F)cc32)cc1N1CCNCC1`, the AUCt in series [3] came to 290 ng·h/mL. Besides, the values for the Cmax at 24 h in the series “in vivo [4]” and in the series “in vivo [5]” were 77 ng/mL and 24 ng/mL, respectively. In the series “in vivo [6]”, this compound gave an AUC(0-t) at 24 h of 102 ng·h/mL. The half-life at 24 h in “in vivo [7]” was 3.4 h. In addition, in “in vivo [8]”, the bioavailability at 24 h stood at 14.4%. Besides, the lipophilicity (logP) in the series “physchem [1]” was determined as 3.39. For the same compound, the pKa in “physchem [2]” was 8.62.
